Legend:
[1] = Body weight and general condition of NASH mice; conditions: for Mean body weight at sacrifice / Mean body weight during the treatment period: NASH mice; for Mean body weight at sacrifice: mean±SD, Vehicle 22.9±2.9, no significant difference; for Mean body weight during the treatment period: versus vehicle group
Description: The viability, clinical signs and behavior were monitored daily. Body weight was recorded daily before drug administration. […] The animals were sacrificed by exsanguination through direct cardiac puncture under ether anesthesia (Wako Pure Chemical Industries).

NASH mice [2] = test: HE staining and NAFLD Activity score in NASH mice; conditions: for NAFLD Activity score (NAS): mean±SD, Vehicle 5.9±1.0, tended to decrease
Description: NASH was induced in 40 male mice by a single subcutaneous injection of 200 μg streptozotocin (Sigma-Aldrich, USA) 2 days after birth and feeding with high fat diet (HFD, 57 kcal % fat, cat# HFD32, CLEA Japan, Japan) after 4 weeks of age. The mice were randomized into 5 groups of 8 mice at 9 weeks of age. Eight male littermates, fed with normal diet (cat# CE-2, CLEA Japan) without streptozotocin treatment, were used for the Normal group.
The test substance solution was filled in the osmotic pumps at concentrations determined based on the individual body weight at the start of treatment (day 0). Telmisartan was administered by oral route in a volume of 10 mL/kg body weight.
Telmisartan was administered once daily at a dose of 10 mg/kg body weight.
For HE staining, sections were cut from paraffin blocks of liver tissue prefixed in Bouin's solution and stained with Lillie-Mayer's Hematoxylin (Muto Pure Chemicals, Japan) and eosin solution (Wako Pure Chemical Industries).

Collagen Type 3 = test: Quantitative RT-PCR of liver, Collagen Type 3 mRNA, NASH mice; type: in vivo, C57BL/6J mice; conditions: 13 weeks of age, mean ± SD
Description: Total RNA was extracted from liver samples using RNAiso (Takara Bio, Japan) according to the manufacturer's instructions. One μg of RNA was reverse-transcribed using a reaction mixture containing 4.4 mM MgCl2 (Roche, Switzerland), 40 U RNase inhibitor (Toyobo, Japan), 0.5 mM dNTP (Promega, USA), 6.28 μM random hexamer (Promega), 5× first strand buffer (Promega), 10 mM dithiothreitol (Invitrogen, USA) and 200 U MMLV-RT (Invitrogen) in a final volume of 20 μL. The reaction was carried out for 1 hour at 37° C., followed by 5 minutes at 99° C. Real-time PCR was performed using real-time PCR DICE and SYBR premix Taq (Takara Bio). To calculate the relative mRNA expression level, the expression of each gene was normalized to that of reference gene 36B4 (gene symbol: Rplp0). Information of PCR-primer sets and the plate layout was described in Table 1.

NASH mice [3] = test: Serum ALT in NASH mice; type: in vivo, C57BL/6J mice; conditions: mean±SD, Vehicle 58±29, no significant difference
Description: Non-fasting blood glucose was measured in whole blood using Life Check (EIDIA, Japan). For serum biochemistry, blood was collected in polypropylene tubes without anticoagulant and kept at room temperature for 30 minutes, followed by at 4° C. for 1 hour. The blood samples were then centrifuged at 1,000×g for 15 minutes at 4° C. The supernatant was collected and stored at −80° C. until use. Serum ALT and TG levels were measured by FUJI DRI-CHEM 7000 (Fujifilm, Japan).

[4] = high dose 3 mg/kg/day s.c. infusion 9-13 wks
[5] = low dose 1 mg/kg/day s.c. infusion 9-13 wks

SMILES: C[C@H]1[C@H]2N(C(=O)CN(C)N2C(=O)NCc2ccccc2)[C@@H](Cc2ccc(OP(=O)(O)O)cc2)C(=O)N1Cc1cccc2cccnc12 [Compound A, 4-(((6S,9S,9aS)-1-(benzylcarbamoyl)-2,9-dimethyl-4,7-dioxo-8-(quinolin-8-ylmethyl)octahydro-1H-pyrazino[2,1-c][1,2,4]triazin-6-yl)methyl)phenyl dihydrogen phosphate]
- Mean body weight at sacrifice [1, 4]: 23.7 ± 1.1 g
- Mean body weight during the treatment period ([1]; high dose 3 mg/kg/day s.c. infusion): no significant differences
- Mean body weight at sacrifice [1, 5]: 22.6 ± 2.6 g
- Mean body weight during the treatment period ([1]; low dose 1 mg/kg/day s.c. infusion): no significant differences
- General condition ([1]; any of the animals (all groups), throughout the treatment period): No deterioration
- HE-stained liver sections, difference from Vehicle group (NASH mice [2]; [4]): No obvious difference
- NAFLD Activity score (NAS) (NASH mice [2]; [4]): 5.1±0.6
- HE-stained liver sections: lobular inflammation (NASH mice [2]; low dose 1 mg/kg/day s.c. infusion 9-13 wks, compared with the Vehicle group): improved
- NAFLD Activity score (NAS) (NASH mice [2]; [5]): 4.8±0.9
- Collagen Type 3 mRNA expression level (relative, normalized to 36B4) (Collagen Type 3; high dose 3 mg/kg/day s.c. infusion 9-13 wks, n = 8, Vehicle 3.09 ± 1.51, tended to be down-regulated, 3 mg/kg/day): 2.22±0.46
- Collagen Type 3 mRNA expression level (relative, normalized to 36B4) (Collagen Type 3; low dose 1 mg/kg/day s.c. infusion 9-13 wks, n = 8, Vehicle 3.09 ± 1.51, significantly down-regulated, 1 mg/kg/day): 1.93±0.37
- Serum ALT (NASH mice [3]; [4]): 49±17 U/L
- Serum ALT (NASH mice [3]; [5]): 45±17 U/L

— patent US20160263131A1, “TREATMENT OF HEPATIC FIBROSIS USING AN INHIBITOR OF CBP/CATENIN” (priority 2013, published 2016)
